Measured values as given in PubChem BioAssay AID248 (DTP/NCI, 2004).
“And” between values parts separate entries of the source, which are not always exact repeats. Equal values may be shown once. Inconclusive results and toxic doses are left out. Cut-off read from the data, not from the text of the source: active = T/C of 150% or more; inactive = T/C below 125%.

Tested on: L1210 leukemia ip in BDF1 mice, survival T/C
Assay: NCI In Vivo Anticancer Drug Screen. Data for tumor model L1210 Leukemia (intraperitoneal) in B6D2F1 (BDF1) mice
Settings: endpoint: mean survival time, higher = longer survival
How it was run: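 In this screen, tumor-bearing mice given compound are compared to those given vehicle, and their survival values are reported as a treated-to-control quotient.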

[1] = dose: 200.0 mg/kg/injection, schedule: Q04DX002 (ip), vehicle: saline with Tween-80
[2] = dose: 100.0 mg/kg/injection, schedule: Q04DX002 (ip), vehicle: Klucel (hydroxypropylcellulose) (HPC)
[3] = dose: 200.0 mg/kg/injection, schedule: Q04DX002 (ip), vehicle: Klucel (hydroxypropylcellulose) (HPC)
[4] = dose: 100.0 mg/kg/injection, schedule: Q04DX003 (ip), vehicle: saline with Tween-80
[5] = dose: 200.0 mg/kg/injection, schedule: Q04DX003 (ip), vehicle: saline with Tween-80
[6] = dose: 400.0 mg/kg/injection, schedule: Q04DX003 (ip), vehicle: saline with Tween-80
[7] = dose: 100.0 mg/kg/injection, schedule: Q01DX001 (ip), vehicle: saline
[8] = dose: 200.0 mg/kg/injection, schedule: Q01DX001 (ip), vehicle: saline
[9] = dose: 400.0 mg/kg/injection, schedule: Q01DX001 (ip), vehicle: saline
[10] = dose: 100.0 mg/kg/injection, schedule: Q01DX009 (ip), vehicle: saline with Tween-80
[11] = dose: 50.0 mg/kg/injection, schedule: Q01DX009 (ip), vehicle: Klucel (hydroxypropylcellulose) (HPC)
[12] = dose: 100.0 mg/kg/injection, schedule: Q01DX009 (ip), vehicle: Klucel (hydroxypropylcellulose) (HPC)
[13] = dose: 50.0 mg/kg/injection, schedule: Q01DX009 (ip), vehicle: saline with Tween-80

Measured: T/C

NCc1ccc[n+]([O-])c1
inactive: dose: 12.5 mg/kg/injection, schedule: Q04DX002 (ip), vehicle: saline with Tween-80 97 % of control | dose: 25.0 mg/kg/injection, schedule: Q04DX002 (ip), vehicle: saline with Tween-80 105 % of control | dose: 50.0 mg/kg/injection, schedule: Q04DX002 (ip), vehicle: saline with Tween-80 102 % of control and 118 % of control | [1] 89 % of control

Oc1ccccc1/C=N/Sc1ccccc1.Oc1ccccc1/C=N/Sc1ccccc1.[Ni+2]
inactive: [2] 94 % of control | [3] 94 % of control | dose: 400.0 mg/kg/injection, schedule: Q04DX002 (ip), vehicle: Klucel (hydroxypropylcellulose) (HPC) 105 % of control

O=C(OCCCCCOC(=O)c1cccc([N+](=O)[O-])c1)c1cccc([N+](=O)[O-])c1
inactive: dose: 100.0 mg/kg/injection, schedule: Q01DX001 (ip), vehicle: other 93 % of control | dose: 200.0 mg/kg/injection, schedule: Q01DX001 (ip), vehicle: other 96 % of control | dose: 400.0 mg/kg/injection, schedule: Q01DX001 (ip), vehicle: other 95 % of control

O=C(O)Cn1c(=O)n(CC(=O)O)c2ccccc21
inactive: [4] 93 % of control | [5] 98 % of control | [6] 98 % of control

CCN(CC)c1ccc(N=C2C=C(C(=O)Nc3ccc(S(C)(=O)=O)cc3)C(=O)c3ccccc32)c(C)c1
inactive: [7] 92 % of control | [8] 96 % of control | [9] 96 % of control

O=C(SCCNC(=O)N1CCCCC1)Sc1ccccc1
inactive: [4] 105 % of control | [5] 101 % of control | [6] 114 % of control

Nc1nc2nc3c(nc2c(=O)[nH]1)C(=O)N(c1ccc(C(=O)O)cc1)C3
inactive: [7] 103 % of control | [8] 103 % of control

CC(C)(C)NC(=O)C1C2C=CC(C2)C1C(=O)NC(C)(C)C (stereo not drawn)
inactive: [4] 96 % of control | [5] 91 % of control | [6] 91 % of control

Oc1ccc2ccccc2c1/C=N\Nc1ccccn1
inactive: dose: 100.0 mg/kg/injection, schedule: Q04DX002 (ip), vehicle: saline with Tween-80 92 % of control | [1] 92 % of control | dose: 400.0 mg/kg/injection, schedule: Q04DX002 (ip), vehicle: saline with Tween-80 89 % of control

COc1ccc(/C=C2\CSC/C(=C/c3ccc(OC)cc3)C2=O)cc1
inactive: dose: 100.0 mg/kg/injection, schedule: Q01DX009 (ip), vehicle: saline 91 % of control | dose: 100.0 mg/kg/injection, schedule: Q04DX003 (ip), vehicle: saline 95 % of control | dose: 200.0 mg/kg/injection, schedule: Q01DX009 (ip), vehicle: saline 95 % of control | dose: 200.0 mg/kg/injection, schedule: Q04DX003 (ip), vehicle: saline 94 % of control | dose: 400.0 mg/kg/injection, schedule: Q01DX009 (ip), vehicle: saline 87 % of control | dose: 400.0 mg/kg/injection, schedule: Q04DX003 (ip), vehicle: saline 97 % of control

CC(C)(CO)N=Cc1cc(Cl)cc(Cl)c1O
inactive: dose: 75.0 mg/kg/injection, schedule: Q01DX001 (ip), vehicle: saline 102 % of control | dose: 150.0 mg/kg/injection, schedule: Q01DX001 (ip), vehicle: saline 101 % of control | dose: 300.0 mg/kg/injection, schedule: Q01DX001 (ip), vehicle: saline 109 % of control

O=C(/C=C/c1cccc([N+](=O)[O-])c1)Nc1cccc(S(=O)(=O)F)c1
inactive: [10] 89 % of control | dose: 200.0 mg/kg/injection, schedule: Q01DX009 (ip), vehicle: saline with Tween-80 96 % of control | dose: 400.0 mg/kg/injection, schedule: Q01DX009 (ip), vehicle: saline with Tween-80 97 % of control

O=c1[nH]nc(SCc2ccccc2)c(=O)[nH]1
inactive: [7] 108 % of control | [8] 92 % of control | [9] 109 % of control

CNC(=O)Oc1ccc(NC(=O)OC)cc1
inactive: [4] 93 % of control | [5] 87 % of control

O=S(=O)(O)c1ccccc1O
inactive: dose: 25.0 mg/kg/injection, schedule: Q01DX009 (ip), vehicle: saline 101 % of control | dose: 50.0 mg/kg/injection, schedule: Q01DX009 (ip), vehicle: saline 98 % of control

CCCCN=C([Se])NCCCC
inactive: dose: 15.0 mg/kg/injection, schedule: Q01DX015 (ip), vehicle: carboxymethylcellulose (CMC) 103 % of control | dose: 30.0 mg/kg/injection, schedule: Q01DX015 (ip), vehicle: carboxymethylcellulose (CMC) 96 % of control | dose: 60.0 mg/kg/injection, schedule: Q01DX015 (ip), vehicle: carboxymethylcellulose (CMC) 97 % of control

CCCCCCc1cc(N=Nc2ccc(S(=O)(=O)Nc3nccc(C)n3)cc2)c(O)cc1O
inactive: dose: 100.0 mg/kg/injection, schedule: Q01DX001 (ip), vehicle: carboxymethylcellulose (CMC) 95 % of control | dose: 200.0 mg/kg/injection, schedule: Q01DX001 (ip), vehicle: carboxymethylcellulose (CMC) 98 % of control | dose: 400.0 mg/kg/injection, schedule: Q01DX001 (ip), vehicle: carboxymethylcellulose (CMC) 93 % of control

COC(=O)c1nc(Cl)nc(S(C)(=O)=O)c1Cl
inactive: dose: 12.5 mg/kg/injection, schedule: Q01DX009 (ip), vehicle: Klucel (hydroxypropylcellulose) (HPC) 109 % of control | dose: 25.0 mg/kg/injection, schedule: Q01DX009 (ip), vehicle: Klucel (hydroxypropylcellulose) (HPC) 103 % of control | [11] 103 % of control and 89 % of control | [12] 92 % of control

CC1CN=C(c2ccc(NC(=O)c3ccc(C(=O)Nc4ccc(C5=NCC(C)N5)cc4)c(N)c3)cc2)N1 (stereo not drawn)
inactive: dose: 15.0 mg/kg/injection, schedule: Q01DX Z (ip), vehicle: saline 92 % of control | dose: 30.0 mg/kg/injection, schedule: Q01DX Z (ip), vehicle: saline 86 % of control | dose: 62.5 mg/kg/injection, schedule: Q01DX010 (oral), vehicle: saline 100 % of control | dose: 125.0 mg/kg/injection, schedule: Q01DX010 (oral), vehicle: saline 100 % of control | dose: 250.0 mg/kg/injection, schedule: Q01DX010 (oral), vehicle: saline 101 % of control | dose: 500.0 mg/kg/injection, schedule: Q01DX010 (oral), vehicle: saline 105 % of control

Oc1ccc2c(c1)Cc1cc3ccccc3nc1-2
inactive: dose: 50.0 mg/kg/injection, schedule: Q01DX001 (ip), vehicle: saline 98 % of control | [7] 95 % of control | [8] 97 % of control | [9] 93 % of control

Cn1nc(N)c2ncc(C(Cl)(Cl)Cl)nc21
inactive: dose: 25.0 mg/kg/injection, schedule: Q01DX009 (ip), vehicle: saline with Tween-80 108 % of control | [13] 111 % of control

CCN(CC)CC#CCN(CC)CC
inactive: [13] 92 % of control | [10] 97 % of control | [4] 102 % of control | [5] 90 % of control

O=C(CCl)Nc1ccc(C(=O)O)cc1
inactive: dose: 3.0 mg/kg/injection, schedule: Q01DX Z (ip), vehicle: carboxymethylcellulose (CMC) 96 % of control | dose: 7.0 mg/kg/injection, schedule: Q01DX Z (ip), vehicle: carboxymethylcellulose (CMC) 102 % of control | dose: 15.0 mg/kg/injection, schedule: Q01DX Z (ip), vehicle: carboxymethylcellulose (CMC) 88 % of control | dose: 30.0 mg/kg/injection, schedule: Q01DX Z (ip), vehicle: carboxymethylcellulose (CMC) 104 % of control

CN1C2CC(=O)CC1C1CCC2C1
inactive: dose: 15.0 mg/kg/injection, schedule: Q01DX001 (ip), vehicle: carboxymethylcellulose (CMC) 103 % of control | dose: 30.0 mg/kg/injection, schedule: Q01DX001 (ip), vehicle: carboxymethylcellulose (CMC) 101 % of control

NCc1c(Cl)cccc1[N+](=O)[O-]
inactive: [11] 96 % of control and 108 % of control | [12] 96 % of control and 99 % of control and 101 % of control | [2] 105 % of control | dose: 100.0 mg/kg/injection, schedule: Q04DX002 (ip), vehicle: saline 102 % of control | dose: 200.0 mg/kg/injection, schedule: Q01DX009 (ip), vehicle: Klucel (hydroxypropylcellulose) (HPC) 94 % of control and 104 % of control and 110 % of control | [3] 100 % of control | dose: 200.0 mg/kg/injection, schedule: Q04DX002 (ip), vehicle: saline 94 % of control

S=C(Nc1ccc(Br)cc1)NC1CCCCC1
inactive: dose: 75.0 mg/kg/injection, schedule: Q01DX001 (ip), vehicle: other 88 % of control | dose: 150.0 mg/kg/injection, schedule: Q01DX001 (ip), vehicle: other 93 % of control | dose: 300.0 mg/kg/injection, schedule: Q01DX001 (ip), vehicle: other 95 % of control
